Measurements from patent US10308644B2, “Heterocyclic compounds as immunomodulators” (Incyte Corporation, priority 2016, dated 2019).

Biological target: PD-1/PD-L1 (Homo sapiens (Human), UniProt Q9NZQ7)
Test: PD-1/PD-L1 Homogeneous Time-Resolved Fluorescence (HTRF) Binding Assay
Settings: recombinant human PD-1 (3 nM) and PD-L1 (10 nM), 25° C., PBS pH 7.4
Description: Example A. PD-1/PD-L1 Homogeneous Time-Resolved Fluorescence (HTRF) Binding Assay
The assays were conducted in a standard black 384-well polystyrene plate with a final volume of 20 μL. Inhibitors were first serially diluted in DMSO and then added to the plate wells before the addition of other reaction components. The final concentration of DMSO in the assay was 1%. The assays were carried out at 25° C. in the PBS buffer (pH 7.4) with 0.05% Tween-20 and 0.1% BSA. Recombinant human PD-L1 protein (19-238) with a His-tag at the C-terminus was purchased from AcroBiosystems (PD1-H5229). Recombinant human PD-1 protein (25-167) with Fc tag at the C-terminus was also purchased from AcroBiosystems (PD1-H5257). PD-L1 and PD-1 proteins were diluted in the assay buffer and 10 μL was added to the plate well. Plates were centrifuged and proteins were preincubated with inhibitors for 40 minutes. The incubation was followed by the addition of 10 μL of HTRF detection buffer supplemented with Europium cryptate-labeled anti-human IgG (PerkinElmer-AD0212) specific for Fc and anti-His antibody conjugated to SureLight®-Allophycocyanin (APC, PerkinElmer-AD0059H). After centrifugation, the plate was incubated at 25° C. for 60 min. before reading on a PHERAstar FS plate reader (665 nm/620 nm ratio). Final concentrations in the assay were—3 nM PD1, 10 nM PD-L1, 1 nM europium anti-human IgG and 20 nM anti-His-Allophycocyanin. IC50 determination was performed by fitting the curve of percent control activity versus the log of the inhibitor concentration using the GraphPad Prism 5.0 software.

Sequence of PD-1/PD-L1 (Q9NZQ7 19-238): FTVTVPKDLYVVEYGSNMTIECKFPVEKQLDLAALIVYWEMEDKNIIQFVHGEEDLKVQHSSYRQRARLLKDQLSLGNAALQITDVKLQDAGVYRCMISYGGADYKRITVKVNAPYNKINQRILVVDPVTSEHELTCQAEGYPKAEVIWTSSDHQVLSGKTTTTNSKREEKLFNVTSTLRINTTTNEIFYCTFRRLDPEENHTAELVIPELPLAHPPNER

IC50, ≤ 10 nM:
Cc1c(NC(=O)c2nc3c(n2C)CCN(C)C3)cccc1-c1cccc(-c2nc3cc(CN4CC[C@@H](C(=O)O)C4)cc(C#N)c3o2)c1C [Example 80, (R)-1-((7-cyano-2-(3′-(1,5-dimethyl-4,5,6,7-tetrahydro-1H-imidazo[4,5-c]pyridine-2-carboxamido)-2,2′-dimethylbiphenyl-3-yl)benzo[d]oxazol-5-yl)methyl)pyrrolidine-3-carboxylic acid]
Cc1c(Nc2nccc3cc(CN4CC[C@@H](O)C4)cnc23)cccc1-c1cccc(-c2nc3cc(CN4CC5CC4CC5C(=O)O)cc(C#N)c3o2)c1C (stereo partly drawn) [Example 176, 2-((7-cyano-2-(3′-(3-(((R)-3-hydroxypyrrolidin-1-yl)methyl)-1,7-naphthyridin-8-ylamino)-2,2′-dimethylbiphenyl-3-yl)benzo[d]oxazol-5-yl)methyl)-2-aza bicyclo[2.2.1]heptane-5-carboxylic acid]
Cc1c(-c2nc3c(o2)CN(C(=O)CN(C)C)C3)cccc1-c1cccc(-c2nc3cc(CN4CC(C(=O)O)C4)cc(C#N)c3o2)c1C [Example 123, 1-((7-cyano-2-(3′-(5-(dimethylglycyl)-5,6-dihydro-4H-pyrrolo[3,4-d]oxazol-2-yl)-2,2′-dimethyl-[1,1′-biphenyl]-3-yl)benzo[d]oxazol-5-yl)methyl)azetidine-3-carboxylic acid]
Cc1c(Nc2nccc3cc(C4CN(CCO)C4)cnc23)cccc1-c1cccc(-c2nc3cc(CN4CC[C@@H](C(=O)O)C4)cc(C#N)c3o2)c1C [Example 96, (R)-1-((7-cyano-2-(3′-(3-(1-(2-hydroxyethyl)azetidin-3-yl)-1,7-naphthyridin-8-ylamino)-2,2′-dimethylbiphenyl-3-yl)benzo[d]oxazol-5-yl)methyl)pyrrolidine-3-carboxylic acid]
CC(=O)NCCNCc1cc(C#N)c2oc(-c3cccc(-c4cccc(-c5nc6c(s5)CN(C(C)C)CC6)c4C)c3C)nc2c1 [Example 118, N-(2-(((7-cyano-2-(3′-(5-isopropyl-4,5,6,7-tetrahydrothiazolo[5,4-c]pyridin-2-yl)-2,2′-dimethyl-[1,1′-biphenyl]-3-yl)benzo[d]oxazol-5-yl)methyl)amino)ethyl)acetamide]
Cc1c(Nc2nccc3cc(CN4CCCC4)cnc23)cccc1-c1cccc(-c2nc3cc(CN4CC[C@@H](C(=O)O)C4)cc(C#N)c3o2)c1C [Example 134, (R)-1-((7-cyano-2-(2,2′-dimethyl-3′-(3-(pyrrolidin-1-ylmethyl)-1,7-naphthyridin-8-ylamino)biphenyl-3-yl)benzo[d]oxazol-5-yl)methyl)pyrrolidine-3-carboxylic acid]
Cc1c(-c2nc3cc(CN4CCC(C(=O)O)CC4)cc(C#N)c3o2)cccc1-c1cccc(NC(=O)c2nc3c(n2C)CC(C)NC3)c1Cl (centres unmarked) [Example 164, 1-((2-(2′-chloro-3′-(1,6-dimethyl-4,5,6,7-tetrahydro-1H-imidazo[4,5-c]pyridine-2-carboxamido)-2-methylbiphenyl-3-yl)-7-cyanobenzo[d]oxazol-5-yl)methyl)piperidine-4-carboxylic acid]
Cc1c(-c2nc3cc(CN4CC[C@@H](C(=O)O)C4)cc(Cl)c3o2)cccc1-c1cccc(-c2nc3c(s2)CNCC3)c1C [Example 70, (R)-1-((7-chloro-2-(2,2′-dimethyl-3′-(4,5,6,7-tetrahydrothiazolo[5,4-c]pyridin-2-yl)-[1,1′-biphenyl]-3-yl)benzo[d]oxazol-5-yl)methyl)pyrrolidine-3-carboxylic acid]
Cc1c(-c2nc3cc(CN4CCC(C(=O)O)CC4)cc(C#N)c3o2)cccc1-c1cccc(Nc2nccc3cc(CN4CC[C@@H](O)C4)cnc23)c1Cl [Example 188, (R)-1-((2-(2′-chloro-3′-(3-((3-hydroxypyrrolidin-1-yl)methyl)-1,7-naphthyridin-8-ylamino)-2-methylbiphenyl-3-yl)-7-cyanobenzo[d]oxazol-5-yl)methyl) piperidine-4-carboxylic acid]
Cc1c(-c2nc3cc(CN4CC[C@@H](C(=O)O)C4)cc(C#N)c3o2)cccc1-c1cccc(-c2nc3c(s2)CN(CCO)CC3)c1C [Example 65, (R)-1-((7-cyano-2-(3′-(5-(2-hydroxyethyl)-4,5,6,7-tetrahydrothiazolo[5,4-c]pyridin-2-yl)-2,2′-dimethyl-[1,1′-biphenyl]-3-yl)benzo[d]oxazol-5-yl)methyl)pyrrolidine-3-carboxylic acid]
Cc1c(-c2nc3cc(CN4CC[C@@](C)(C(=O)O)C4)cc(C#N)c3o2)cccc1-c1cccc(NC(=O)c2nc3c(n2C)CCN(C)C3)c1Cl [Example 88, (R)-1-((2-(2′-chloro-3′-(1,5-dimethyl-4,5,6,7-tetrahydro-1H-imidazo[4,5-c]pyridine-2-carboxamido)-2-methylbiphenyl-3-yl)-7-cyanobenzo[d]oxazol-5-yl)methyl)-3-methylpyrrolidine-3-carboxylic acid]
Cc1c(-c2nc3cc(CN4CC[C@@H](C(=O)O)C4)cc(C#N)c3o2)cccc1-c1cccc(-c2nc3c(s2)CN(C(=O)CN(C)C)C3)c1C [Example 105, (R)-1-((7-cyano-2-(3′-(5-(2-(dimethylamino)acetyl)-5,6-dihydro-4H-pyrrolo[3,4-d]thiazol-2-yl)-2,2′-dimethylbiphenyl-3-yl)benzo[d]oxazol-5-yl)methyl)pyrrolidine-3-carboxylic acid]
Cc1c(-c2nc3cc(CN4CC[C@@H](C(=O)O)C4)cc(C#N)c3o2)cccc1-c1cccc(-c2nc3c(s2)CN(C(=O)CCN(C)C)C3)c1C [Example 106, (R)-1-((7-cyano-2-(3′-(5-(3-(dimethylamino)propanoyl)-5,6-dihydro-4H-pyrrolo[3,4-d]thiazol-2-yl)-2,2′-dimethylbiphenyl-3-yl)benzo[d]oxazol-5-yl)methyl)pyrrolidine-3-carboxylic acid]
Cc1c(Nc2nccc3cc(CN[C@H](C)CO)cnc23)cccc1-c1cccc(-c2nc3cc(CN4CC[C@@H](C(=O)O)C4)cc(C#N)c3o2)c1C [Example 258, (R)-1-((7-cyano-2-(3′-(3-(((R)-1-hydroxypropan-2-ylamino)methyl)-1,7-naphthyridin-8-ylamino)-2,2′-dimethylbiphenyl-3-yl)benzo[d]oxazol-5-yl)methyl)pyrrolidine-3-carboxylic acid]
Cc1c(Nc2nccc3cc(CN4CC[C@@H](O)C4)cnc23)cccc1-c1cccc(-c2nc3cc(CN4CC[C@H](CC(=O)O)C4)cc(C#N)c3o2)c1C [Example 173, 2-((R)-1-((7-cyano-2-(3′-(3-(((R)-3-hydroxypyrrolidin-1-yl)methyl)-1,7-naphthyridin-8-ylamino)-2,2′-dimethylbiphenyl-3-yl)benzo[d]oxazol-5-yl)methyl)pyrrolidin-3-yl)acetic acid]
Cc1c(-c2nc3c(o2)CCNC3)cccc1-c1cccc(-c2nc3cc(CN4CC[C@H](C(=O)O)C4)cc(Cl)c3o2)c1C [Example 76, (S)-1-((7-chloro-2-(2,2′-dimethyl-3′-(4,5,6,7-tetrahydrooxazolo[4,5-c]pyridin-2-yl)-[1,1′-biphenyl]-3-yl)benzo[d]oxazol-5-yl)methyl)pyrrolidine-3-carboxylic acid]
Cc1c(Nc2nccc3cc(CNC(C)(C)CO)cnc23)cccc1-c1cccc(-c2nc3cc(CN4CC[C@@](C)(C(=O)O)C4)cc(C#N)c3o2)c1C [Example 198, (R)-1-((7-cyano-2-(3′-(3-((1-hydroxy-2-methylpropan-2-ylamino)methyl)-1,7-naphthyridin-8-ylamino)-2,2′-dimethylbiphenyl-3-yl)benzo[d]oxazol-5-yl)methyl)-3-methylpyrrolidine-3-carboxylic acid]
Cc1c(-c2nc3cc(CN4CC[C@@](C)(C(=O)O)C4)cc(C#N)c3o2)cccc1-c1cccc(-c2nc3c(s2)CN(C(=O)CN2CC[C@@H](O)C2)C3)c1C [Example 222]
Cc1c(-c2nc3cc(CN4CCC(C(=O)O)CC4)cc(C#N)c3o2)cccc1-c1cccc(NC(=O)c2nc3c(n2C)CCN(C[C@@H](C)O)C3)c1Cl [Example 155, (R)-1-((2-(2′-chloro-3′-(5-(2-hydroxypropyl)-1-methyl-4,5,6,7-tetrahydro-1H-imidazo[4,5-c]pyridine-2-carboxamido)-2-methylbiphenyl-3-yl)-7-cyanobenzo[d]oxazol-5-yl)methyl)piperidine-4-carboxylic acid]
Cc1c(-c2nc3cc(CN4CC[C@@H](O)C4)cc(C#N)c3o2)cccc1-c1cccc(NC(=O)c2nc3c(n2C)CCN(CC24CC(C(=O)O)(C2)C4)C3)c1Cl [Example 262, (R)-3-((2-(2-chloro-3′-(7-cyano-5-((3-hydroxypyrrolidin-1-yl)methyl)benzo[d]oxazol-2-yl)-2′-methylbiphenyl-3-yl-carbamoyl)-1-methyl-6,7-dihydro-1H-imidazo[4,5-c]pyridin-5(4H)-yl)methyl)bicyclo[1.1.1]-pentane-1-carboxylic acid]
